# Calls of active or inactive are those of the source. The rule behind the calls is not given here.
# Tests used:
# SH-SY5Y [1] = assay: Cytotoxicity against human SH-SY5Y cells assessed as cell viability at 10 uM after 48 hrs by MTT assay relative to control; format: functional; settings: for viability at 10 µM: Homo sapiens, SH-SY5Y, 48 h, read-out: Activity
# [2] = target: Histone deacetylase (Homo sapiens) (UniProt Q13547+O15379+Q9UBN7+Q92769+Q9UQL6+Q8WUI4+Q9BY41+Q96DB2+P56524+Q9UKV0+Q969S8); settings: SH-SY5Y, at 10 µM
# Description: Inhibition of HDAC in human SHSY5Y cells at 10 uM by fluorimetric cellular activity assay
# SH-SY5Y [3] = assay: Cytotoxicity against human SH-SY5Y cells assessed as cell viability after 48 hrs by MTT assay; format: functional, cell-based
# Histone deacetylase = assay: Inhibition of HDAC in human SHSY5Y cells by fluorimetric cellular activity assay; format: cell-based; settings: sh-sy5y
# SH-SY5Y [4] = assay: Cell cycle arrest in human SH-SY5Y cells assessed as accumulation at G2/M phase at 3 uM after 16 hrs by flow cytometry; format: functional
Compound,viability at 10 µM (SH-SY5Y [1]) [%],IC50 (SH-SY5Y [3]) [µM],also measured
O=C(CCCCCCC(=O)N(Cc1ccccc1)C(Cc1ccc(-c2ccccc2)cc1)C(=O)NCCc1ccccc1)NO (stereo not given),22.2,4.2,inhibition [2]: Active; IC50 (Histone deacetylase): 4.4 µM; Activity (SH-SY5Y [4]): 11.3%
O=C(CCCCCC(=O)N(CCc1ccccc1)C(Cc1ccccc1)C(=O)NCc1ccccc1)NO (stereo not given),34.9,7.5,–
O=C(CCCCCCC(=O)Nc1ccccc1)NO [VORINOSTAT],–,–,Activity (SH-SY5Y [1]): 33.8%; Activity (SH-SY5Y [4]): 34%
O=C(CCCCCC(=O)N(Cc1ccccc1)C(Cc1ccccc1)C(=O)NCCc1ccccc1)NO (stereo not given),30.8,7.6,–
Nc1ccccc1NC(=O)CCCCCC(=O)N(Cc1ccccc1)C(Cc1ccccc1)C(=O)NC1CCCCC1 (stereo not given),91.6,–,–
O=C(CCCCCC(=O)N(Cc1ccccc1)C(Cc1ccccc1)C(=O)NC1CCCCC1)NO (stereo not given),27.4,2.5,inhibition [2]: Active; IC50 (Histone deacetylase): 1.2 µM; Activity (SH-SY5Y [4]): 34.3%
O=C(CCCCCC(=O)N(CCc1ccccc1)C(Cc1ccccc1)C(=O)NCCc1ccccc1)NO (stereo not given),30.2,2.9,–
CN(C(=O)CCCCCCC(=O)NO)C(Cc1ccccc1)C(=O)NCCc1ccccc1 (stereo not given),94.4,–,–
CCCCCCCC(C(=O)NCCc1ccccc1)N(Cc1ccccc1)C(=O)CCCCCCC(=O)NO (stereo not given),53,–,–
CCCCCCC(C(=O)NC1CCCCC1)N(CCc1ccccc1)C(=O)CCCCCC(=O)NO (stereo not given),35,2.9,–
O=C(CCCCCCC(=O)N(Cc1ccccc1)C(Cc1ccccc1)C(=O)NCCc1ccccc1)NO (stereo not given),53.1,–,–
Nc1ccccc1NC(=O)CCCCCCC(=O)N(Cc1ccccc1)C(Cc1ccc(-c2ccccc2)cc1)C(=O)NCCc1ccccc1 (stereo not given),74,–,–
